Measured values from ChEMBL document CHEMBL5126517, “Structure-Activity Relationship in the Leucettine Family of Kinase Inhibitors” (J Med Chem, 2022).
pEC50, pIC50: −log10 of the molar value. Values belong to the compound of their own block, whether it stands above or below them. Calls of active or inactive are those of the source. The calls are words filed in the database; no cut-off is given here.

Columns and labels:
[1] = target: Dual specificity tyrosine-phosphorylation-regulated kinase 1B (Homo sapiens, UniProt Q9Y463)
Sequence of Dual specificity tyrosine-phosphorylation-regulated kinase 1B (Q9Y463 whole entry): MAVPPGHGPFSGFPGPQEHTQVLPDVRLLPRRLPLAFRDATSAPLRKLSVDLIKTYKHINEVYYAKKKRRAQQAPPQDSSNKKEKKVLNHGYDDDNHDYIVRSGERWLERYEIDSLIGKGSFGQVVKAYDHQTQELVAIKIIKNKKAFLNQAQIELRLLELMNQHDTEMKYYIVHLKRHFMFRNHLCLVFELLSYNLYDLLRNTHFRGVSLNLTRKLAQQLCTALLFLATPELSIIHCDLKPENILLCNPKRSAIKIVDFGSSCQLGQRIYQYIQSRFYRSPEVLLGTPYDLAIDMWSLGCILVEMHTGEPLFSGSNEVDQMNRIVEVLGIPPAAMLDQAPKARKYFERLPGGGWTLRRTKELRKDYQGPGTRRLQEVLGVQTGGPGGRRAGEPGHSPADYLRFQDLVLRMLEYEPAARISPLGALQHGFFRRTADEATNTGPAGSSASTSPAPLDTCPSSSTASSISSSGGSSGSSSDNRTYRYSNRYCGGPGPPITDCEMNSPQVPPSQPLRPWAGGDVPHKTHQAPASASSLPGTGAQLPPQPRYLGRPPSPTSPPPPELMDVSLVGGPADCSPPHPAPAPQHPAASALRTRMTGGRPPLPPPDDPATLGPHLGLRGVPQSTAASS

U2OS = experiment: Induction of PI3K/mTor-dependent autophagy in human U2OS cells assessed as number of LC3 foci per cell at 10 uM measured after 4 hrs; assay type: cell-based; conditions: filed as activator
[2] = target: Dual specificity protein kinase CLK4 (Mus musculus, UniProt O35493); experiment: Inhibition of GST-fused mouse recombinant CLK4 expressed in Escherichia coli using GRSRSRSRSRSR peptide as substrate incubated for 30 mins in presence of ATP by scintillation counting method
Sequence of Dual specificity protein kinase CLK4 (O35493 whole entry, the tested form may be a part): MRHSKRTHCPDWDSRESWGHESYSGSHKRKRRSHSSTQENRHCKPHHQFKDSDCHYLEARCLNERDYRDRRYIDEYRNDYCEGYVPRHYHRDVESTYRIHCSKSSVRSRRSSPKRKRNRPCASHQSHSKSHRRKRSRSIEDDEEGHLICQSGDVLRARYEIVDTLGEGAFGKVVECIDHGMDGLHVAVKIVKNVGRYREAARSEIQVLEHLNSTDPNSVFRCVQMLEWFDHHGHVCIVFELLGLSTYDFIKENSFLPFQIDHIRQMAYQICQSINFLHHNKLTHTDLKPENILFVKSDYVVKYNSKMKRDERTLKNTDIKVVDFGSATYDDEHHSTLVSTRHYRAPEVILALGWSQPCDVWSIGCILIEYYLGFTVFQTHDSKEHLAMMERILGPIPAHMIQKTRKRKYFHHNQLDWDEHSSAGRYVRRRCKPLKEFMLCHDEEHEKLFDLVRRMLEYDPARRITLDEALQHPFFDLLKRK

HT-22 [3] = experiment: Neuroprotective activity against glutamate-induced cell death in mouse HT-22 cells treated for 24 hrs by MTS assay; assay type: functional, cell-based; conditions: HT-22, 24 h
[4] = target: T1, Dual specificity tyrosine-phosphorylation-regulated kinase 2 (Homo sapiens, UniProt Q92630); experiment: Inhibition of GST-fused human recombinant DYRK2 expressed in Escherichia coli using GRSRSRSRSRSR peptide as substrate incubated for 30 mins in presence of ATP by scintillation counting method
T1 sequence (Q92630 whole entry): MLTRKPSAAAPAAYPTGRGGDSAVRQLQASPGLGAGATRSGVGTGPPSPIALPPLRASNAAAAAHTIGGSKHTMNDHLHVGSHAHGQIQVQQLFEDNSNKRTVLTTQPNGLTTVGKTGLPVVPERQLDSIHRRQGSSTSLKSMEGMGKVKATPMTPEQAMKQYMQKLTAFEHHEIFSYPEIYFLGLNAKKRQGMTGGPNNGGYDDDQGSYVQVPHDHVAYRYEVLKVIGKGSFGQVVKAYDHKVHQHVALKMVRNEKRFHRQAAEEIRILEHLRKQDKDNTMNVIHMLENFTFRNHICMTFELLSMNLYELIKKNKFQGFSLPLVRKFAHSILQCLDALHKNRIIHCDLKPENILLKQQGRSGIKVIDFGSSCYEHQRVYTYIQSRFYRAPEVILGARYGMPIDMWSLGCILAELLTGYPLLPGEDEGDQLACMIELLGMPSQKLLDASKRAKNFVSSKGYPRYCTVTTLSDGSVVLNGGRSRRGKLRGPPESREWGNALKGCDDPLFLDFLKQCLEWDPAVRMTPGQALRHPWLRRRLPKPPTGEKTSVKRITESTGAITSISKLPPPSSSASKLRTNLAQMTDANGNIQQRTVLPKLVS

[5] = target: Serine/threonine-protein kinase pim-1 (Homo sapiens, UniProt P11309); experiment: Inhibition of human recombinant Pim1 expressed in Escherichia coli using histone H1 as substrate incubated for 30 mins in presence of ATP by scintillation counting method
Sequence of Serine/threonine-protein kinase pim-1 (P11309 whole entry): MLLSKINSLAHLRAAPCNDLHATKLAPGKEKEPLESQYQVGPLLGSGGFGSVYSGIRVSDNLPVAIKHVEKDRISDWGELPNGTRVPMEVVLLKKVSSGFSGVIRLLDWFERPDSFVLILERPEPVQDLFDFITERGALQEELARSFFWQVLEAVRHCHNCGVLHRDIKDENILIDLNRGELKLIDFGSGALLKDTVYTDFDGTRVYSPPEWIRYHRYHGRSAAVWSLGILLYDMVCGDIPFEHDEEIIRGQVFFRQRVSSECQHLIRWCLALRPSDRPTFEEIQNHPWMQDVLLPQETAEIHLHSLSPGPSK

Cannabinoid receptor 1 [6] = target: T2, Cannabinoid receptor 1 (Homo sapiens, UniProt P21554); experiment: Displacement of [3H]-CP55940 from CB1 receptor (unknown origin) expressed in HEK293 cell membrane assessed as dissociation constant at 10 uM by liquid scintillation counting method; assay type: cell membranes; conditions: filed as modulator
T2 sequence (P21554 whole entry): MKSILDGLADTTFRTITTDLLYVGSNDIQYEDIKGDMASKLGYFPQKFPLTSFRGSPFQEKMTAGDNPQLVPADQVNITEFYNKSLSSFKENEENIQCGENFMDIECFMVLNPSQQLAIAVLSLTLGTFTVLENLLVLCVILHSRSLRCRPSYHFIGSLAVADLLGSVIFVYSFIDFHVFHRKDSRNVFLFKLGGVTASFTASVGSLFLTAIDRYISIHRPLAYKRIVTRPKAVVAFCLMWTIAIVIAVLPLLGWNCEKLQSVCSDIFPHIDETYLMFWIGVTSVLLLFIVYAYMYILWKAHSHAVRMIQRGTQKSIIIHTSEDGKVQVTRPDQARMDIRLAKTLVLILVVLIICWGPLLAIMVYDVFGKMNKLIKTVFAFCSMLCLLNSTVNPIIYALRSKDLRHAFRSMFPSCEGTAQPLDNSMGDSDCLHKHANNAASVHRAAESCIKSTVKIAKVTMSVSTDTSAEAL

Cannabinoid receptor 1 [7] = target: T2, Cannabinoid receptor 1; experiment: Antagonist activity at CP-55940-activated CB1 receptor (unknown origin) at 10 uM by beta-arrestin assay relative to control; assay type: functional; set-up: scale not given: the % may be the effect or the level left
[8] = Neurotoxicity against mouse HT-22 cells assessed as cell survival at 20 uM treated for 24 hrs by MTS assay; assay type: toxicity, cell-based; conditions: ht-22, 24 h
Cannabinoid receptor 1 [9] = target: T2, Cannabinoid receptor 1; experiment: […] allosteric modulation of CB1 receptor (unknown origin) expressed in HEK293 cell membrane assessed as inhibition of CP-55940-induced [35S]-GTPgammaS binding at 10 uM in presence of GDP by liquid scintillation counting method; assay type: functional, cell membranes; conditions: DDE = dose-dependent effect
[10] = target: Dual specificity protein kinase CLK1 (Mus musculus, UniProt P22518); experiment: Inhibition of GST-fused mouse recombinant CLK1 expressed in Escherichia coli using GRSRSRSRSRSR peptide as substrate incubated for 30 mins in presence of ATP by scintillation counting method
Sequence of Dual specificity protein kinase CLK1 (P22518 whole entry, the tested form may be a part): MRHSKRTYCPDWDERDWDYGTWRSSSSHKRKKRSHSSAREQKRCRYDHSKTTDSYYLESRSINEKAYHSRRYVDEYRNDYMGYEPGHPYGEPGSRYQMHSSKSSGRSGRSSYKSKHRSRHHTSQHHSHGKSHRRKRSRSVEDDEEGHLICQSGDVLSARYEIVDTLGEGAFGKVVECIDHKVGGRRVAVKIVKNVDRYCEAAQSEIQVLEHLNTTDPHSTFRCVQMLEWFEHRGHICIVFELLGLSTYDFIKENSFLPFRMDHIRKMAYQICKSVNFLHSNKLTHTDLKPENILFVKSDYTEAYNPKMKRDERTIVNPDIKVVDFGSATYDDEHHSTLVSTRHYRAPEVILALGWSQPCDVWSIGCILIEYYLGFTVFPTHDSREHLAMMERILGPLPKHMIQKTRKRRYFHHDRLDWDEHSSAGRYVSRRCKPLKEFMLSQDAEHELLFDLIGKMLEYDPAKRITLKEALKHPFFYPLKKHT

Cannabinoid receptor 1 [11] = target: T2, Cannabinoid receptor 1; experiment: Antagonist activity at CP-55940-activated CB1 receptor (unknown origin) by beta-arrestin assay; assay type: functional
Casein kinase 2 = Casein kinase 2 (Homo sapiens, UniProt P67870+P68400+P19784+Q8NEV1); experiment: Inhibition of human recombinant CK2 using RRRDDDSDDD peptide as substrate incubated for 30 mins in presence of ATP by scintillation counting method; assay type: protein assay
HT-22 [12] = experiment: Induction of PI3K/mTor-dependent autophagy in mouse HT-22 cells assessed as number of LC3 foci per cell at 10 uM incubated for 24 hrs using Lamp-1 staining based immunofluorescence microscopy; conditions: filed as activator
[13] = target: Dual specificity tyrosine-phosphorylation-regulated kinase 1A (Homo sapiens, UniProt Q13627); experiment: Inhibition of GST-fused human recombinant DYRK1A expressed in Escherichia coli using GRSRSRSRSRSR peptide as substrate incubated for 30 mins in presence of ATP by scintillation counting method
[14] = Neurotoxicity against mouse HT-22 cells assessed as cell survival treated for 24 hrs by MTS assay; assay type: toxicity, cell-based
[15] = target: Dual specificity protein kinase CLK2 (Mus musculus, UniProt O35491); experiment: Inhibition of mouse recombinant GST-fused CLK2 expressed in Escherichia coli using GRSRSRSRSRSR peptide as substrate incubated for 30 mins in presence of ATP by scintillation counting method
Sequence of Dual specificity protein kinase CLK2 (O35491 whole entry, the tested form may be a part): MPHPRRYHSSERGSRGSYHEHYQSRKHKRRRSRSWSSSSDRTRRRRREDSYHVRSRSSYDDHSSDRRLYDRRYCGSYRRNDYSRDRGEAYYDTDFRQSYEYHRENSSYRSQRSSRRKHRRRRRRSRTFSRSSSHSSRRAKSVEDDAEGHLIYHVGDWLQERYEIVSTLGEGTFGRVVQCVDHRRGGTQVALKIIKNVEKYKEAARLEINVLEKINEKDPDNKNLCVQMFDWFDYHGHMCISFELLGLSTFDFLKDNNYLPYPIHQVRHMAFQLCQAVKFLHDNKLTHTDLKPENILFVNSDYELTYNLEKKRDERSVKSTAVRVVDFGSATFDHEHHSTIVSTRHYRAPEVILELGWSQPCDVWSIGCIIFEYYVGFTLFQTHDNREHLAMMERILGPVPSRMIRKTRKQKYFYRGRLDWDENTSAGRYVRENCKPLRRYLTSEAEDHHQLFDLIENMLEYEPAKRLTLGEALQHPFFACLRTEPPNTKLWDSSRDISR

[16] = target: Glycogen synthase kinase-3 (Sus scrofa, UniProt B2LUN4+I6LNT8); experiment: Inhibition of porcine brain GSK-3alpha/beta using YRRAAVPPSPSLSRHSSPHQpSEDEEE as substrate incubated for 30 mins in presence of ATP by scintillation counting method; assay type: tissue-based
HT-22 [17] = experiment: Induction of PI3K/mTor-dependent autophagy in mouse HT-22 cells assessed as number of LC3 foci per cell at 10 uM incubated for 24 hrs using Anti-LC3 staining based immunofluorescence microscopy; conditions: filed as activator
[18] = target: T3, Dual specificity tyrosine-phosphorylation-regulated kinase 3 (Homo sapiens, UniProt O43781); experiment: Inhibition of GST-fused human recombinant DYRK3 expressed in Escherichia coli using GRSRSRSRSRSR peptide as substrate incubated for 30 mins in presence of ATP by scintillation counting method
T3 sequence (O43781 whole entry): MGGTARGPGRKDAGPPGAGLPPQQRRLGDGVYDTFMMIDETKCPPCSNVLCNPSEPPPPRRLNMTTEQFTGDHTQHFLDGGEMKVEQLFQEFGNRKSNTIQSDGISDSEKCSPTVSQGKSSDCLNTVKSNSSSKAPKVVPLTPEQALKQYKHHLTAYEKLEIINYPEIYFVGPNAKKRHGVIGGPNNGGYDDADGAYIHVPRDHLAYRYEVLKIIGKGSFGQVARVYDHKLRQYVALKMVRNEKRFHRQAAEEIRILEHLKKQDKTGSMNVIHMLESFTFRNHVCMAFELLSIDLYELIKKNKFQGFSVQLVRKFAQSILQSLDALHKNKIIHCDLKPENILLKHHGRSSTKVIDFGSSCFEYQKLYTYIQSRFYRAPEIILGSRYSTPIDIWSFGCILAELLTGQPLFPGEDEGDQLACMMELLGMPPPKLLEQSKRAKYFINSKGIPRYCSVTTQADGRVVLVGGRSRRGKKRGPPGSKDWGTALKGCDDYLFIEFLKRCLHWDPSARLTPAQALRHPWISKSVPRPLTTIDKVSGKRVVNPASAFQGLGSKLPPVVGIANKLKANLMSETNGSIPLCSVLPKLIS

[19] = target: Dual specificity protein kinase CLK3 (Mus musculus, UniProt O35492); experiment: Inhibition of GST-fused mouse recombinant CLK3 expressed in Escherichia coli using GRSRSRSRSRSR peptide as substrate incubated for 30 mins in presence of ATP by scintillation counting method
Sequence of Dual specificity protein kinase CLK3 (O35492 whole entry, the tested form may be a part): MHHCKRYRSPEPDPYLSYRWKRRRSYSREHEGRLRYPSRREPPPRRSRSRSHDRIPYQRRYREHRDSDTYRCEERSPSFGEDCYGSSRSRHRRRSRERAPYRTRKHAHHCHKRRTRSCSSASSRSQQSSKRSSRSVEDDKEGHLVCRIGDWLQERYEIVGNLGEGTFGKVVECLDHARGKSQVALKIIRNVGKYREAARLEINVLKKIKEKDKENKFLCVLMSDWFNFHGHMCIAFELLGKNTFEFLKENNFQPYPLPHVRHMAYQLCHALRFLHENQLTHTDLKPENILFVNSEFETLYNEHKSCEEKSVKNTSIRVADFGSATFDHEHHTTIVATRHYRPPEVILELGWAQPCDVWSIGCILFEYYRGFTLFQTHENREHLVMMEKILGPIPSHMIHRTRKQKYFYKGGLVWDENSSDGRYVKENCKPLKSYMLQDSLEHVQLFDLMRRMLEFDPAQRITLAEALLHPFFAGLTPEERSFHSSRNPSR

[20] = Drug metabolism in human liver microsomes assessed as GSH reduction metabolite at 50 uM incubated for 60 mins in presence of 13C2,15N-GSH by LC-MS/MS analysis; assay type: ADME, Microsome; conditions: 1 h

pIC50 [1]: < 5.00
pIC50 [2]: < 5.00
pIC50 [4]: < 5.00
pIC50 [5]: < 5.00
Kb (Cannabinoid receptor 1 [6]): 1200 nM
Activity (Cannabinoid receptor 1 [7]; filed as antagonist): 89.3%
Activity (Cannabinoid receptor 1 [9]): Dde
pIC50 [10]: < 5.00
Compound: O=C1NC(Nc2ccccc2)=N/C1=C\c1ccc2c(c1)OCCCO2
Activity (U2OS): 5.6
pEC50 (HT-22 [3]): 4.90
Activity [8]: Non-Toxic

Compound: COc1cc(/C=C2\N=C(Nc3ccccc3)NC2=O)ccc1O
pIC50 [1]: 7.21
pIC50 (Cannabinoid receptor 1 [11]): 5.33
IC50 (Casein kinase 2): 620 nM
Activity (U2OS): 11.7
Activity (HT-22 [12]): Active
pIC50 [13]: 7.15
pIC50 [2]: 7.64
pEC50 (HT-22 [3]): 5.89
IC50 at 24 h [14]: > 20000 nM
pIC50 [15]: 6.85
pIC50 [4]: 7.48
IC50 [16]: 1100 nM
Activity (HT-22 [17]): Active
pIC50 [5]: 6.74
Activity (Cannabinoid receptor 1 [7]): 1.6%
pIC50 [18]: 6.92
pIC50 [10]: 7.68
pIC50 [19]: 6.21

Compound: O=C1NC(Nc2ccc(N3CCCCC3)cc2)=N/C1=C\c1ccc2c(c1)OCO2
pIC50 [1]: 5.68
pIC50 (Cannabinoid receptor 1 [11]): 7.04
Activity (U2OS): 11.4
pIC50 [13]: 6.15
pIC50 [2]: 5.82
pEC50 (HT-22 [3]): 6.18
pIC50 [15]: < 5.00
pIC50 [4]: 6.64
IC50 [16]: > 10000 nM
Kb (Cannabinoid receptor 1 [6]): 3300 nM
Activity (Cannabinoid receptor 1 [7]; filed as antagonist): 81.7%
Activity [8]: Non-Toxic
pIC50 [18]: < 5.00
Activity (Cannabinoid receptor 1 [9]): Dde
pIC50 [10]: 5.38

Compound: COc1cc(/C=C2\N=C(Nc3ccc(N4CCN(C)CC4)cc3)NC2=O)ccc1O
Activity (U2OS): 22
Drug metabolism [20]: Metabolite_Notdetected
pEC50 (HT-22 [3]): < 4.70
IC50 [16]: 200 nM
Activity (Cannabinoid receptor 1 [7]): 14.3%
Activity [8]: Non-Toxic
